Assay results taken from PubChem BioAssay AID248 (DTP/NCI, 2004).
Several values for one entry are separate records, joined by “and”; a condition that tells them apart may be missing. Identical values can stand only once. Toxic doses and inconclusive results are not listed. No stated cut-off is given here; in the data, active means T/C of 150% or more; inactive means T/C below 125%.

Tested on: L1210 leukemia ip in BDF1 mice, survival T/C
Assay: NCI In Vivo Anticancer Drug Screen. Data for tumor model L1210 Leukemia (intraperitoneal) in B6D2F1 (BDF1) mice
Conditions: higher = longer survival
In short: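 Antitumor effect is assessed in tumor-bearing animals. Survival in the compound arm is compared with a vehicle-dosed control arm and expressed as their quotient.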

Measured: T/C

C[n+]1c2ccccc2nc2c(N)cc(N)cc21
inactive: endpoint: mean survival time, dose: 1.0 mg/kg/injection, schedule: Q03HX024 (ip), vehicle: saline 101 % of control | endpoint: mean survival time, dose: 1.25 mg/kg/injection, schedule: Q#A X030 (ip), vehicle: water 104 % of control | endpoint: mean survival time, dose: 2.0 mg/kg/injection, schedule: Q01DX005 (iv), vehicle: saline 99 % of control | endpoint: mean survival time, dose: 2.0 mg/kg/injection, schedule: Q01DX009 (ip), vehicle: saline 96 % of control | endpoint: mean survival time, dose: 2.0 mg/kg/injection, schedule: Q03HX016 (ip), vehicle: saline 101 % of control | endpoint: mean survival time, dose: 2.0 mg/kg/injection, schedule: Q03HX024 (ip), vehicle: saline 107 % of control | endpoint: mean survival time, dose: 2.5 mg/kg/injection, schedule: Q01DX010 (oral), vehicle: water 105 % of control | endpoint: mean survival time, dose: 2.5 mg/kg/injection, schedule: Q#A X030 (ip), vehicle: water 107 % of control | endpoint: mean survival time, dose: 3.0 mg/kg/injection, schedule: Q01DX Z (ip), vehicle: saline 109 % of control | endpoint: mean survival time, dose: 3.12 mg/kg/injection, schedule: Q01DX001 (ip), vehicle: water 109 % of control and 110 % of control | endpoint: mean survival time, dose: 4.0 mg/kg/injection, schedule: Q01DX001 (iv), vehicle: saline 94 % of control | endpoint: mean survival time, dose: 4.0 mg/kg/injection, schedule: Q01DX005 (iv), vehicle: saline 96 % of control | endpoint: mean survival time, dose: 4.0 mg/kg/injection, schedule: Q01DX007 (iv), vehicle: saline 113 % of control | endpoint: mean survival time, dose: 4.0 mg/kg/injection, schedule: Q01DX009 (ip), vehicle: saline 104 % of control | endpoint: mean survival time, dose: 4.0 mg/kg/injection, schedule: Q01DX Z (sc), vehicle: steriod suspending solution 103 % of control | endpoint: mean survival time, dose: 4.0 mg/kg/injection, schedule: Q03HX008 (ip), vehicle: saline 107 % of control | endpoint: mean survival time, dose: 4.0 mg/kg/injection, schedule: Q03HX016 (ip), vehicle: saline 96 % of control | endpoint: mean survival time, dose: 4.0 mg/kg/injection, schedule: Q03HX024 (ip), vehicle: saline 100 % of control | endpoint: mean survival time, dose: 4.4 mg/kg/injection, schedule: Q#A X Z (ip), vehicle: carboxymethylcellulose (CMC) 110 % of control | endpoint: mean survival time, dose: 5.0 mg/kg/injection, schedule: Q01DX001 (ip), vehicle: saline 103 % of control | endpoint: mean survival time, dose: 5.0 mg/kg/injection, schedule: Q01DX009 (ip), vehicle: saline 111 % of control | endpoint: mean survival time, dose: 5.0 mg/kg/injection, schedule: Q01DX Z (im), vehicle: saline 104 % of control | endpoint: mean survival time, dose: 5.0 mg/kg/injection, schedule: Q01DX Z (ip), vehicle: saline 112 % of control | endpoint: mean survival time, dose: 6.25 mg/kg/injection, schedule: Q01DX001 (ip), vehicle: water 110 % of control | endpoint: mean survival time, dose: 6.65 mg/kg/injection, schedule: Q#A X Z (ip), vehicle: carboxymethylcellulose (CMC) 104 % of control | endpoint: mean survival time, dose: 8.0 mg/kg/injection, schedule: Q01DX001 (iv), vehicle: saline 96 % of control | endpoint: mean survival time, dose: 8.0 mg/kg/injection, schedule: Q01DX005 (iv), vehicle: saline 93 % of control | endpoint: mean survival time, dose: 8.0 mg/kg/injection, schedule: Q01DX007 (iv), vehicle: saline 104 % of control | endpoint: mean survival time, dose: 8.0 mg/kg/injection, schedule: Q01DX009 (ip), vehicle: saline 101 % of control | endpoint: mean survival time, dose: 8.0 mg/kg/injection, schedule: Q01DX Z (sc), vehicle: steriod suspending solution 109 % of control | endpoint: mean survival time, dose: 8.0 mg/kg/injection, schedule: Q03HX008 (ip), vehicle: saline 110 % of control | endpoint: mean survival time, dose: 8.0 mg/kg/injection, schedule: Q03HX016 (ip), vehicle: saline 101 % of control | endpoint: mean survival time, dose: 8.0 mg/kg/injection, schedule: Q03HX024 (ip), vehicle: saline 112 % of control | endpoint: mean survival time, dose: 8.0 mg/kg/injection, schedule: Q04DX003 (ip), vehicle: saline 101 % of control | endpoint: mean survival time, dose: 10.0 mg/kg/injection, schedule: Q01DX001 (ip), vehicle: saline 103 % of control | endpoint: mean survival time, dose: 10.0 mg/kg/injection, schedule: Q01DX010 (oral), vehicle: water 113 % of control | endpoint: mean survival time, dose: 10.0 mg/kg/injection, schedule: Q01DX Z (im), vehicle: saline 106 % of control | endpoint: mean survival time, dose: 12.5 mg/kg/injection, schedule: Q01DX001 (ip), vehicle: water 112 % of control | endpoint: mean survival time, dose: 16.0 mg/kg/injection, schedule: Q01DX001 (iv), vehicle: saline 96 % of control | endpoint: mean survival time, dose: 16.0 mg/kg/injection, schedule: Q01DX005 (iv), vehicle: saline 102 % of control | endpoint: mean survival time, dose: 16.0 mg/kg/injection, schedule: Q01DX009 (sc), vehicle: saline 104 % of control | endpoint: mean survival time, dose: 16.0 mg/kg/injection, schedule: Q01DX Z (sc), vehicle: steriod suspending solution 104 % of control and 105 % of control | endpoint: mean survival time, dose: 16.0 mg/kg/injection, schedule: Q03HX008 (ip), vehicle: saline 107 % of control | endpoint: mean survival time, dose: 16.0 mg/kg/injection, schedule: Q03HX016 (ip), vehicle: saline 104 % of control and 113 % of control | endpoint: mean survival time, dose: 16.0 mg/kg/injection, schedule: Q04DX003 (ip), vehicle: saline 103 % of control | endpoint: mean survival time, dose: 16.0 mg/kg/injection, schedule: Q08DX002 (ip), vehicle: saline 102 % of control | endpoint: mean survival time, dose: 20.0 mg/kg/injection, schedule: Q01DX001 (ip), vehicle: saline 101 % of control | endpoint: mean survival time, dose: 20.0 mg/kg/injection, schedule: Q01DX009 (ip), vehicle: saline 110 % of control | endpoint: mean survival time, dose: 20.0 mg/kg/injection, schedule: Q01DX010 (oral), vehicle: water 107 % of control and 111 % of control | endpoint: mean survival time, dose: 20.0 mg/kg/injection, schedule: Q01DX Z (im), vehicle: saline 108 % of control | endpoint: mean survival time, dose: 20.0 mg/kg/injection, schedule: Q01DX Z (ip), vehicle: saline 114 % of control | endpoint: mean survival time, dose: 20.0 mg/kg/injection, schedule: Q01DX Z (oral), vehicle: saline 106 % of control | endpoint: mean survival time, dose: 25.0 mg/kg/injection, schedule: Q01DX001 (ip), vehicle: other 112 % of control | endpoint: mean survival time, dose: 32.0 mg/kg/injection, schedule: Q01DX001 (ip), vehicle: saline 108 % of control | endpoint: mean survival time, dose: 32.0 mg/kg/injection, schedule: Q01DX001 (iv), vehicle: saline 96 % of control | endpoint: mean survival time, dose: 32.0 mg/kg/injection, schedule: Q01DX009 (oral), vehicle: saline 102 % of control | endpoint: mean survival time, dose: 32.0 mg/kg/injection, schedule: Q01DX009 (sc), vehicle: saline 106 % of control | endpoint: mean survival time, dose: 32.0 mg/kg/injection, schedule: Q01DX Z (sc), vehicle: steriod suspending solution 100 % of control | endpoint: mean survival time, dose: 32.0 mg/kg/injection, schedule: Q03HX016 (ip), vehicle: saline 110 % of control | endpoint: mean survival time, dose: 32.0 mg/kg/injection, schedule: Q04DX003 (ip), vehicle: saline 107 % of control | endpoint: mean survival time, dose: 32.0 mg/kg/injection, schedule: Q08DX002 (ip), vehicle: saline 98 % of control | endpoint: mean survival time, dose: 37.0 mg/kg/injection, schedule: Q01DX001 (ip), vehicle: other 107 % of control | endpoint: mean survival time, dose: 40.0 mg/kg/injection, schedule: Q01DX001 (ip), vehicle: saline 110 % of control | endpoint: mean survival time, dose: 40.0 mg/kg/injection, schedule: Q01DX009 (ip), vehicle: saline 97 % of control | endpoint: mean survival time, dose: 40.0 mg/kg/injection, schedule: Q01DX010 (oral), vehicle: water 104 % of control | endpoint: mean survival time, dose: 40.0 mg/kg/injection, schedule: Q01DX Z (ip), vehicle: saline 109 % of control | endpoint: mean survival time, dose: 50.0 mg/kg/injection, schedule: Q01DX001 (ip), vehicle: water 110 % of control | endpoint: mean survival time, dose: 56.0 mg/kg/injection, schedule: Q01DX001 (ip), vehicle: other 111 % of control | endpoint: mean survival time, dose: 61.6 mg/kg/injection, schedule: Q07DX Z (ip), vehicle: carboxymethylcellulose (CMC) 112 % of control | endpoint: mean survival time, dose: 64.0 mg/kg/injection, schedule: Q01DX001 (ip), vehicle: saline 114 % of control | endpoint: mean survival time, dose: 64.0 mg/kg/injection, schedule: Q01DX001 (oral), vehicle: saline 106 % of control | endpoint: mean survival time, dose: 64.0 mg/kg/injection, schedule: Q01DX001 (sc), vehicle: saline 98 % of control | endpoint: mean survival time, dose: 64.0 mg/kg/injection, schedule: Q01DX009 (oral), vehicle: saline 98 % of control | endpoint: mean survival time, dose: 64.0 mg/kg/injection, schedule: Q01DX Z (sc), vehicle: steriod suspending solution 101 % of control | endpoint: mean survival time, dose: 64.0 mg/kg/injection, schedule: Q08DX002 (ip), vehicle: saline 104 % of control | endpoint: mean survival time, dose: 80.0 mg/kg/injection, schedule: Q01DX001 (ip), vehicle: saline 103 % of control | endpoint: mean survival time, dose: 80.0 mg/kg/injection, schedule: Q01DX010 (oral), vehicle: water 110 % of control | endpoint: mean survival time, dose: 93.1 mg/kg/injection, schedule: Q07DX Z (ip), vehicle: carboxymethylcellulose (CMC) 110 % of control | endpoint: mean survival time, dose: 128.0 mg/kg/injection, schedule: Q01DX001 (oral), vehicle: saline 98 % of control | endpoint: mean survival time, dose: 128.0 mg/kg/injection, schedule: Q01DX001 (sc), vehicle: saline 98 % of control | endpoint: mean survival time, dose: 128.0 mg/kg/injection, schedule: Q08DX002 (ip), vehicle: saline 104 % of control | endpoint: mean survival time, dose: 140.0 mg/kg/injection, schedule: Q07DX Z (ip), vehicle: carboxymethylcellulose (CMC) 112 % of control | endpoint: mean survival time, dose: 160.0 mg/kg/injection, schedule: Q01DX010 (oral), vehicle: water 110 % of control | endpoint: mean survival time, dose: 256.0 mg/kg/injection, schedule: Q01DX001 (oral), vehicle: saline 98 % of control | endpoint: mean survival time, dose: 256.0 mg/kg/injection, schedule: Q01DX001 (sc), vehicle: saline 105 % of control | endpoint: mean survival time, dose: 256.0 mg/kg/injection, schedule: Q01DX009 (oral), vehicle: saline 104 % of control and 114 % of control | endpoint: mean survival time, dose: 288.0 mg/kg/injection, schedule: Q01DX Z (oral), vehicle: other 103 % of control | endpoint: mean survival time, dose: 432.0 mg/kg/injection, schedule: Q01DX Z (oral), vehicle: other 95 % of control | endpoint: mean survival time, dose: 512.0 mg/kg/injection, schedule: Q01DX001 (oral), vehicle: saline 106 % of control | endpoint: mean survival time, dose: 512.0 mg/kg/injection, schedule: Q01DX009 (oral), vehicle: saline 112 % of control | endpoint: mean survival time, dose: 1024.0 mg/kg/injection, schedule: Q01DX001 (oral), vehicle: saline 109 % of control | endpoint: median survival time, dose: 5.0 mg/kg/injection, schedule: Q01DX009 (ip), vehicle: saline 110 % of control and 113 % of control
